Experiments:
[1] = test system: human umbilical vein endothelial cell (HUVEC); experiment: in vitro HUVEC angiogenesis (tube formation) assay; format: cell-based; settings: for induction of angiogenesis by factor added to basal media: MultiStem basal media, IL-8 4000 pg/ml, CXCL5 150 pg/ml
Procedure: Growth factor-reduced Matrigel (BD Bioscience, San Jose, Calif.) was thawed on ice at 4° C. overnight and used at a concentration of 6.0-6.5 mg/ml, diluted on ice using ice-cold 1×PBS. Four-hundred microliters of Matrigel was distributed into the inner wells of a 24-well tissue culture plate and allowed to solidify for 1 hour at 37° C. Addition of Matrigel was done on ice and outer wells of plate were filled with 1 ml of 1×PBS.
HUVECs were harvested according to the following protocol: Cells were washed with 1×PBS followed by a brief rinse with 0.25× trypsin-EDTA and then quenched using the 1×PBS (with residual serum) wash. Cells were resuspended in endothelial cell basal media (EBM) and counted. HUVECs were added to the CM, other experimental conditions and controls at a concentration of 55,000 cells/ml/well. Each sample and control was assayed in triplicate. Plates were incubated for 6 hours or 18 hours at 5% CO2 and 37° C. to allow for tube formation. Four fields per well were analyzed for a total of 12 fields. Pictures were taken at using 10× objective. Angiogenesis was scored by counting the number of tubes formed between cells. Results are expressed as average tubes formed per field +/−SEM.
To test whether MultiStem secretes factors which promote angiogenesis, an in vitro angiogenesis assay using conditioned media from MultiStem was utilized. MultiStem were plated under normal conditions for 24 hours. The cells were then transferred to serum-free conditions to generate conditioned media for four days. This media was then tested for angiogenic activity in an in vitro tube formation assay. […] HUVECs were plated in conditioned media, basal media or endothelial growth media for 18 hours. Angiogenesis was measured as the average number of tubes formed per field of view for each condition. In the absence of any additional factors, the presence of serum alone in basal media can induce angiogenesis. Therefore, serum-free media was used for all the experiments.

MultiStem = experiment: RT-PCR analysis of pro-angiogenic gene expression in treated MultiStem; format: cell-based, human
Procedure: FIG. 7—Treatment of MultiStem with Cytomix increases the expression of pro-angiogenic molecules in vitro. MultiStem was grown for three days and then treated with Cytomix (10 ng/mL TNF-α, IL-1β and IFNγ) for 24, 48, 72 hrs. The cells were subsequently collected for RT-PCR analysis for pro-angiogenic gene expression.
FIGS. 10A-C—Pre-treatment of MultiStem with prostaglandin F or latanoprost (prostaglandin F agonist) increases expression of the angiogenic factors by MultiStem in vitro. […] MultiStem was treated with a dose range of Latanoprost for 24, 48 or 72 hours. Gene expression of pro-angiogenic factors was then analyzed by RT-PCR. Gene expression of KITLG (A), HGF and VEGF (B), and Il-8 (C) were all increased.

[2] = MultiStem treated 24, 48, 72 hrs
[3] = MultiStem treated 24, 48 or 72 hours

Compound: CC(C)OC(=O)CCC/C=C\C[C@@H]1[C@@H](CC[C@@H](O)CCc2ccccc2)[C@H](O)C[C@@H]1O [latanoprost]
- angiogenesis, CM from untreated cells with agent added after collection vs CM alone ([1]; 1 uM added to media after collection): equal levels
- tube formation, basal media with added agent ([1]; 1 uM in basal media, no cells): did no induce significant tube formation
- HUVEC tube formation, conditioned media from treated MultiStem vs untreated ([1]; MultiStem cultured three days with 1 uM, serum-free CM): increased modestly
- HGF gene expression (MultiStem; [2]): increased
- IL-8 gene expression (MultiStem; [2]): increased
- VEGF (VEGF A) gene expression (MultiStem; [3]): increased
- KITLG gene expression (MultiStem; MultiStem treated 24, 48 or 72 hours, dose range): increased

Compound: CXCL5: angiogenic cytokine added to MultiStem basal media (150 pg/ml)
- induction of angiogenesis by factor added to basal media [1]: not sufficient to induce angiogenesis

Compound: IL-8: interleukin 8 added to MultiStem basal media (4000 pg/ml)
- induction of angiogenesis by factor added to basal media [1]: not sufficient to induce angiogenesis

Compound: prostaglandin F
- VEGF (VEGF A) gene expression (MultiStem; [3]): increased
